According to ChEMBL document CHEMBL3045060, “Synthesis of some urea and thiourea derivatives of naphtha[1,2-d]thiazol-2-amine as anti-Parkinsonian agents that cause neuroprotection against haloperidol-induced oxidative stress in mice” (2009):

Key:
Assay type in all cases: functional
Mus musculus [1] = experiment: Neuroprotective activity in Mus musculus Swiss albino (mouse) model assessed as reduction in haloperidol-induced catalepsy at 100 mg/kg, ip administered 30 min before haloperidol challenge measured for 30 to 180 min; design: scale not given: the % may be the effect or the level left; settings: route intraperitoneal
Mus musculus [2] = experiment: Neuroprotective activity in haloperidol-induced catalepsy Mus musculus Swiss albino (mouse) model assessed as mean cumulative descent time at 100 mg/kg, po administered 30 min before haloperidol challenge (reference value: 33 +/- 1.34 min)
Mus musculus [3] = experiment: Neuroprotective activity in haloperidol-induced catalepsy Mus musculus Swiss albino (mouse) model assessed as mean descent time at 100 mg/kg, po administered 30 min before haloperidol challenge measured at 30 min post challenge
Mus musculus [4] = experiment: Neuroprotective activity in haloperidol-induced catalepsy Mus musculus Swiss albino (mouse) model assessed as mean descent time at 100 mg/kg, po administered 30 min before haloperidol challenge measured at 60 min post challenge
Mus musculus [5] = experiment: Neuroprotective activity in haloperidol-induced catalepsy Mus musculus Swiss albino (mouse) model assessed as mean descent time at 100 mg/kg, po administered 30 min before haloperidol challenge measured at 90 min post challenge
Mus musculus [6] = experiment: Neuroprotective activity in haloperidol-induced catalepsy Mus musculus Swiss albino (mouse) model assessed as mean descent time at 100 mg/kg, po administered 30 min before haloperidol challenge measured at 120 min post challenge
Mus musculus [7] = experiment: Neuroprotective activity in haloperidol-induced catalepsy Mus musculus Swiss albino (mouse) model assessed as mean descent time at 100 mg/kg, po administered 30 min before haloperidol challenge measured at 150 min post challenge
Mus musculus [8] = experiment: Neuroprotective activity in haloperidol-induced catalepsy Mus musculus Swiss albino (mouse) model assessed as mean descent time at 100 mg/kg, po administered 30 min before haloperidol challenge measured at 180 min post challenge
Mus musculus [9] = experiment: (§1) Neuroprotective activity in haloperidol-induced catalepsy Mus musculus Swiss albino (mouse) model assessed as GSH-Px activity per mg protein in brain homogenate at 100 mg/kg, po administered 30 min before haloperidol challenge measured after 4 hr post challenge by spectrophotometry (reference value: 2.129 +/- 0.06 U/mg protein)
Mus musculus [10] = experiment: as §1, with “as Cu-Zn-SOD” for “as GSH-Px”, “per gram” for “per mg”, “by NBT reduction assay” for “by spectrophotometry”, “value: 1.794” for “value: 2.129”, “+/- 0.03 U/g” for “+/- 0.06 U/mg”
Mus musculus [11] = experiment: as §1, with “GSH level” for “GSH-Px activity”, “gram of” for “mg protein in”, “tissue” for “homogenate”, “23.45” for “2.129”, “0.23 ug/g tissue)” for “0.06 U/mg protein)”
Mus musculus [12] = experiment: as §1, with “inhibition of MDA equivalent TBARS release” for “GSH-Px activity”, “1.157” for “2.129”, “nmol/mg” for “U/mg”

| SMILES | Activity (Mus musculus [1]) | Time (Mus musculus [2]) | Time (Mus musculus [3]) | Time (Mus musculus [4]) | Time (Mus musculus [5]) | Time (Mus musculus [6]) | Time (Mus musculus [7]) | Time (Mus musculus [8]) | Activity (Mus musculus [9]) | Activity (Mus musculus [10]) | Activity (Mus musculus [11]) | Activity (Mus musculus [12]) |
| --- | --- | --- | --- | --- | --- | --- | --- | --- | --- | --- | --- | --- |
| S=C(Nc1nc2c(ccc3ccccc32)s1)Nc1ccccc1Br | 30.96% | 18.1 min | 83 s | 160 s | 189 s | 207 s | 223 s | 226 s | – | – | – | – |
| S=C(Nc1ccc(Br)cc1)Nc1nc2c(ccc3ccccc32)s1 | 35.27% | 17 min | 57 s | 139 s | 161 s | 222 s | 223 s | 220 s | – | – | – | – |
| S=C(Nc1nc2c(ccc3ccccc32)s1)Nc1ccccc1Cl | 39.14% | 16.1 min | 69 s | 156 s | 173 s | 190 s | 189 s | 186 s | – | – | – | – |
| S=C(Nc1ccc(Cl)cc1)Nc1nc2c(ccc3ccccc32)s1 | 27.88% | 18.9 min | 92 s | 169 s | 198 s | 216 s | 232 s | 228 s | – | – | – | – |
| O=[N+]([O-])c1ccccc1NC(=S)Nc1nc2c(ccc3ccccc32)s1 | 72.97% | 7.43 min | 20 s | 36 s | 71 s | 88 s | 109 s | 122 s | 1.77 U/mg | 1.398 U/g protein | 12.5 µg/g | 3.226 nmol/mg protein |
| O=[N+]([O-])c1ccc(NC(=S)Nc2nc3c(ccc4ccccc43)s2)cc1 | 32.13% | 17.8 min | 77 s | 178 s | 199 s | 201 s | 207 s | 208 s | – | – | – | – |
| Cc1ccccc1NC(=S)Nc1nc2c(ccc3ccccc32)s1 | 49.87% | 13.3 min | 68 s | 110 s | 138 s | 157 s | 160 s | 166 s | – | – | – | – |
| Cc1ccc(NC(=S)Nc2nc3c(ccc4ccccc43)s2)cc1 | 47.97% | 13.8 min | 72 s | 114 s | 136 s | 161 s | 173 s | 172 s | – | – | – | – |
| O=C(Nc1ccccc1)Nc1nc2c(ccc3ccccc32)s1 | 44.44% | 14.7 min | 72 s | 132 s | 156 s | 174 s | 172 s | 176 s | – | – | – | – |
| COc1ccc(NC(=O)Nc2nc3c(ccc4ccccc43)s2)cc1 | 58.51% | 11.1 min | 41 s | 99 s | 122 s | 131 s | 136 s | 138 s | – | – | – | – |
| COc1ccc(NC(=O)Nc2nc3c(ccc4ccccc43)s2)c(OC)c1 | 75% | 6.92 min | 32 s | 35 s | 39 s | 68 s | 120 s | 121 s | 1.61 U/mg | 1.469 U/g protein | 13.6 µg/g | 2.706 nmol/mg protein |
| COc1cc(NC(=O)Nc2nc3c(ccc4ccccc43)s2)cc(OC)c1OC | 70.29% | 8.12 min | 29 s | 68 s | 85 s | 89 s | 107 s | 109 s | – | – | – | – |
| O=C(Nc1ccc(Oc2ccccc2)cc1)Nc1nc2c(ccc3ccccc32)s1 | 55.56% | 11.9 min | 76 s | 110 s | 119 s | 132 s | 135 s | 140 s | – | – | – | – |
| O=C(Nc1nc2c(ccc3ccccc32)s1)Nc1ccccc1F | 29.12% | 18.6 min | 57 s | 118 s | 188 s | 236 s | 245 s | 272 s | – | – | – | – |
| O=C(Nc1ccc(F)cc1)Nc1nc2c(ccc3ccccc32)s1 | 30.3% | 18.3 min | 84 s | 159 s | 196 s | 207 s | 226 s | 226 s | – | – | – | – |
| O=C(Nc1nc2c(ccc3ccccc32)s1)Nc1ccccc1Br | 38.74% | 16.1 min | 77 s | 131 s | 145 s | 197 s | 219 s | 200 s | – | – | – | – |

| SMILES | Activity (Mus musculus [1]) | Time (Mus musculus [2]) | Time (Mus musculus [3]) | Time (Mus musculus [4]) | Time (Mus musculus [5]) | Time (Mus musculus [6]) | Time (Mus musculus [7]) | Time (Mus musculus [8]) | Activity (Mus musculus [9]) | Activity (Mus musculus [10]) | Activity (Mus musculus [11]) | Activity (Mus musculus [12]) |
| --- | --- | --- | --- | --- | --- | --- | --- | --- | --- | --- | --- | --- |
| O=C(Nc1ccc(Br)cc1)Nc1nc2c(ccc3ccccc32)s1 | 37.76% | 16.4 min | 82 s | 123 s | 156 s | 191 s | 214 s | 218 s | – | – | – | – |
| O=C(Nc1nc2c(ccc3ccccc32)s1)Nc1ccccc1Cl | 37.37% | 16.5 min | 59 s | 141 s | 159 s | 188 s | 211 s | 232 s | – | – | – | – |
| O=C(Nc1ccc(Cl)cc1)Nc1nc2c(ccc3ccccc32)s1 | 38.61% | 16.2 min | 78 s | 127 s | 171 s | 202 s | 199 s | 194 s | – | – | – | – |
| O=C(Nc1nc2c(ccc3ccccc32)s1)Nc1cc(C(F)(F)F)ccc1Cl | 51.37% | 12.9 min | 67 s | 114 s | 141 s | 156 s | 150 s | 148 s | – | – | – | – |
| O=C(Nc1nc2c(ccc3ccccc32)s1)Nc1ccccc1[N+](=O)[O-] | 72.05% | 7.67 min | 19 s | 54 s | 57 s | 87 s | 98 s | 145 s | – | – | – | – |
| O=C(Nc1ccc([N+](=O)[O-])cc1)Nc1nc2c(ccc3ccccc32)s1 | 31.28% | 18.1 min | 51 s | 113 s | 176 s | 229 s | 245 s | 269 s | – | – | – | – |
| Cc1ccccc1NC(=O)Nc1nc2c(ccc3ccccc32)s1 | 47.64% | 13.9 min | 71 s | 116 s | 138 s | 166 s | 170 s | 172 s | – | – | – | – |
| Cc1ccc(NC(=O)Nc2nc3c(ccc4ccccc43)s2)cc1 | 48.56% | 13.7 min | 69 s | 113 s | 137 s | 161 s | 168 s | 171 s | – | – | – | – |
| S=C(Nc1ccccc1)Nc1nc2c(ccc3ccccc32)s1 | 44.63% | 14.7 min | 65 s | 129 s | 151 s | 178 s | 174 s | 182 s | – | – | – | – |
| COc1ccc(NC(=S)Nc2nc3c(ccc4ccccc43)s2)cc1 | 58.05% | 11.2 min | 44 s | 112 s | 116 s | 128 s | 129 s | 145 s | – | – | – | – |
| COc1ccccc1NC(=S)Nc1nc2c(ccc3ccccc32)s1 | 75.46% | 6.8 min | 19 s | 44 s | 65 s | 87 s | 98 s | 95 s | 2.1 U/mg | 1.684 U/g protein | 13.1 µg/g | 2.045 nmol/mg protein |
| Fc1ccccc1NC(=S)Nc1nc2c(ccc3ccccc32)s1 | 38.35% | 16.2 min | 57 s | 143 s | 152 s | 183 s | 206 s | 234 s | – | – | – | – |
| Fc1ccc(NC(=S)Nc2nc3c(ccc4ccccc43)s2)cc1 | 34.95% | 17.1 min | 43 s | 98 s | 167 s | 246 s | 232 s | 241 s | – | – | – | – |
| O=C(CCCN1CCC(O)(c2ccc(Cl)cc2)CC1)c1ccc(F)cc1 [HALOPERIDOL] | – | 26 min | 176 s | 217 s | 268 s | 300 s | 300 s | 300 s | 1.14 U/mg | – | 6.85 µg/g | – |
| N[C@@H](Cc1ccc(O)c(O)c1)C(=O)O [LEVODOPA] | 65.64% | 9.3 min | 32 s | 49 s | 99 s | 119 s | 122 s | 137 s | – | – | – | – |
